We go through 15 compounds from BindingDB's records for doi:10.1111/cbdd.12887 (Josip Juraj Strossmayer University of Osijek, 2017).

The target in the assay is T1, Dipeptidyl peptidase 3 (Homo sapiens, UniProt Q9NY33).
T1 sequence (Q9NY33 whole entry): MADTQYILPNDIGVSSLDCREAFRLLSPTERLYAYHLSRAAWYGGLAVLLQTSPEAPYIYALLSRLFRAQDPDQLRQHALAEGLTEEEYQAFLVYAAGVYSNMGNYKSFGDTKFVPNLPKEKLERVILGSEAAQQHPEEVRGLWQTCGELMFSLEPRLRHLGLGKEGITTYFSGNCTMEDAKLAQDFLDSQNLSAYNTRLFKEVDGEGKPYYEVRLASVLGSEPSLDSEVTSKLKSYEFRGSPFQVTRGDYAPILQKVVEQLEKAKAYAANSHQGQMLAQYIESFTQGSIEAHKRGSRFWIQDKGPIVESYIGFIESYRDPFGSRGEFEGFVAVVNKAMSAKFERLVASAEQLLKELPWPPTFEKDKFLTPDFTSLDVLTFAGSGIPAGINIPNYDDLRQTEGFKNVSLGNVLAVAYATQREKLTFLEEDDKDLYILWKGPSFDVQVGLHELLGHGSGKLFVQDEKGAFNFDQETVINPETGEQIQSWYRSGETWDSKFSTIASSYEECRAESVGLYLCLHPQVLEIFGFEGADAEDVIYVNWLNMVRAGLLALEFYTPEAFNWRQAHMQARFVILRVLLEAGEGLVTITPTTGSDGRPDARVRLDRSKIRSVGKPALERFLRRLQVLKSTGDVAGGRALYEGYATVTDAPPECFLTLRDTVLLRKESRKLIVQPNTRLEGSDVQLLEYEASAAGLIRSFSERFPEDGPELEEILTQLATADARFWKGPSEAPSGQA
The experiment in a line: DPP III Enzyme Activity Assay. The following applies: pH 7.4; 37 °C. How it is done: The inhibitory activity of flavonoids toward human DPP III was assayed in a 50 mM Tris-HCl buffer, pH 7.4. In brief, recombinant human DPP III (0.29 nM) was preincubated with increasing concentrations of flavonoid first for 1 min at 25°C and then for 3 min at 37°C. The enzymatic reaction was started with Arg-Arg-NA (40 μM) as a substrate, and after the 15 min incubation at 37°C in a water bath, the reaction was stopped and the absorbance was measured using the spectrophotometric method described above[Abramić et al., Biol. Chem. Hoppe-Seyler., 369:29]. The stock solutions of flavonoids were prepared daily in dimethyl sulfoxide (DMSO, Sigma-Aldrich).

In turn, `O=c1c(O)c(-c2ccccc2)oc2ccc(O)cc12` [3,6-dihydroxy-2-phenyl-4H-chromen-4-one] returned an IC50 of 56.4 µM.
Turning to `O=c1c(O)c(-c2ccc(O)c(O)c2)oc2cc(O)ccc12` [2-(3,4-dihydroxyphenyl)-3,7-dihydroxy-chromen-4-one], the IC50 turned out to be 24.9 µM.
Compound `O=c1c(O)c(-c2ccc(O)cc2)oc2cc(O)cc(O)c12` showed an IC50 of 32.9 µM.
In the case of `O=c1c(O)c(-c2ccccc2)oc2cc(O)ccc12` [3,7-dihydroxy-2-phenyl-4H-chromen-4-one], half-maximal inhibition (IC50) required 98 µM.
Then `O=c1cc(-c2ccccc2)oc2ccc(O)cc12` [6-hydroxy-2-phenyl-4H-chromen-4-one], with 82.2 µM.
Then `O=c1c(O)c(-c2ccccc2)oc2ccccc12` [3-hydroxy-2-phenyl-4H-chromen-4-one], with 188 µM; and `O=c1c(O)c(-c2ccccc2)oc2cc(O)cc(O)c12` [norizalpinin], with 23.4 µM; and `O=C1C[C@@H](c2ccccc2)Oc2ccccc21` [Flavanone], with 437 µM.
The compound `O=c1c(O)c(-c2ccc(O)c(O)c2)oc2cc(O)cc(O)c12` [2-(3,4-dihydroxyphenyl)-3,5,7-trihydroxy-chromone;hydrate] gave an IC50 of 74.1 µM.
In the case of `O=c1cc(-c2ccccc2)oc2ccccc12` [flavone], the IC50 was found to be 293 µM.
As for `O=c1cc(-c2ccccc2)oc2cc(O)cc(O)c12` [5,7-dihydroxy-2-phenyl-4H-chromen-4-one], the 50% inhibitory concentration (IC50) was 123 µM.
Then `O=c1cc(-c2ccc(O)c(O)c2)oc2cc(O)cc(O)c12` [2-(3,4-dihydroxyphenyl)-5,7-dihydroxy-4H-chromen-4-one], with 22 µM.
Turning to `O=c1c(-c2ccc(O)cc2)coc2cc(O)cc(O)c12` [Prunetol], the midpoint of inhibition, the IC50, lay at 36.6 µM.
The value for `O=c1cc(-c2ccc(O)cc2)oc2cc(O)cc(O)c12` [Naringenin, 18] was 54 µM; that for `O=c1c(O)c(-c2ccc(O)cc2O)oc2cc(O)cc(O)c12` [2-(2,4-dihydroxyphenyl)-3,5,7-trihydroxychromen-4-one] was 85 µM.
